Experimental data reported in US20240174596A1 (Northwestern University, priority 2021, published 2024).
Where a name gives a salt, the structure may show the parent alone.

What was measured:
hERG = hERG (Homo sapiens, UniProt Q12809); assay: hERG test; assay type: in vitro ADME
hOAT = target: T1, hOAT (Homo sapiens, UniProt P04181); assay: Denaturing intact protein mass spectrometry of inactivated hOAT; details: hOAT fully inactivated; denaturing intact LC-MS
T1 construct: made in house; host or cells: E. coli BL21(DE3)
T1 sequence (P04181 26-439): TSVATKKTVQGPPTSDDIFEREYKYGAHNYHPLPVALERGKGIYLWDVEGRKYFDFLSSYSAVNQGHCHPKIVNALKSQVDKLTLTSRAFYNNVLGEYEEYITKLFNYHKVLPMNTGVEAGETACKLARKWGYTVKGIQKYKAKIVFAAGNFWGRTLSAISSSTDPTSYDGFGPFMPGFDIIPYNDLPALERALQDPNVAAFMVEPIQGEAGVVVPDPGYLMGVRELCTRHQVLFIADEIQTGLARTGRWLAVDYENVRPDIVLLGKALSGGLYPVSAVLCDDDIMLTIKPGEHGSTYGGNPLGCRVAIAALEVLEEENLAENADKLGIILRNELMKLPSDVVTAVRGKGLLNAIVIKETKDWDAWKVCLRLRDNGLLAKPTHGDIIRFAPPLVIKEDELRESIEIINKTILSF
Excerpt: The majority of hOAT remained unmodified (FIG. 5A, top) in comparison with native hOAT as a control (FIG. 5A, bottom). […] However, one would expect a higher abundance of covalently adducted enzyme under these conditions where the enzyme is fully inactivated. This finding thus supported a major non-covalent, inactivation mechansim between hOAT and SS-1-148.
Treated and unmodified purified hOAT samples were desalted ten times with Optima-grade water (Fisher) on Amicon Ultra 10 KDa molecular weight spin filters (Millipore). To chromatographically resolve protein. 0.5 μg of protein was loaded onto a 3 cm PLRP-S (Agilent) trap column using a Dionex Ultimate3000 liquid chromatography system (Thermo Fisher). The protein analyte was washed with a 10-min isocratic gradient of 10% Solvent B (95% acetonitrile/5% H2O/0.2% formic acid) and 90% Solvent A (5% acetonitrile/95% H20/0.2% formic acid). Protein was resolved on an in-house made 75 μm ID×15 cm long nanopore capillary column packed with PLRP-S resin (Agilent). […]

Chain of hERG (Q12809 whole entry): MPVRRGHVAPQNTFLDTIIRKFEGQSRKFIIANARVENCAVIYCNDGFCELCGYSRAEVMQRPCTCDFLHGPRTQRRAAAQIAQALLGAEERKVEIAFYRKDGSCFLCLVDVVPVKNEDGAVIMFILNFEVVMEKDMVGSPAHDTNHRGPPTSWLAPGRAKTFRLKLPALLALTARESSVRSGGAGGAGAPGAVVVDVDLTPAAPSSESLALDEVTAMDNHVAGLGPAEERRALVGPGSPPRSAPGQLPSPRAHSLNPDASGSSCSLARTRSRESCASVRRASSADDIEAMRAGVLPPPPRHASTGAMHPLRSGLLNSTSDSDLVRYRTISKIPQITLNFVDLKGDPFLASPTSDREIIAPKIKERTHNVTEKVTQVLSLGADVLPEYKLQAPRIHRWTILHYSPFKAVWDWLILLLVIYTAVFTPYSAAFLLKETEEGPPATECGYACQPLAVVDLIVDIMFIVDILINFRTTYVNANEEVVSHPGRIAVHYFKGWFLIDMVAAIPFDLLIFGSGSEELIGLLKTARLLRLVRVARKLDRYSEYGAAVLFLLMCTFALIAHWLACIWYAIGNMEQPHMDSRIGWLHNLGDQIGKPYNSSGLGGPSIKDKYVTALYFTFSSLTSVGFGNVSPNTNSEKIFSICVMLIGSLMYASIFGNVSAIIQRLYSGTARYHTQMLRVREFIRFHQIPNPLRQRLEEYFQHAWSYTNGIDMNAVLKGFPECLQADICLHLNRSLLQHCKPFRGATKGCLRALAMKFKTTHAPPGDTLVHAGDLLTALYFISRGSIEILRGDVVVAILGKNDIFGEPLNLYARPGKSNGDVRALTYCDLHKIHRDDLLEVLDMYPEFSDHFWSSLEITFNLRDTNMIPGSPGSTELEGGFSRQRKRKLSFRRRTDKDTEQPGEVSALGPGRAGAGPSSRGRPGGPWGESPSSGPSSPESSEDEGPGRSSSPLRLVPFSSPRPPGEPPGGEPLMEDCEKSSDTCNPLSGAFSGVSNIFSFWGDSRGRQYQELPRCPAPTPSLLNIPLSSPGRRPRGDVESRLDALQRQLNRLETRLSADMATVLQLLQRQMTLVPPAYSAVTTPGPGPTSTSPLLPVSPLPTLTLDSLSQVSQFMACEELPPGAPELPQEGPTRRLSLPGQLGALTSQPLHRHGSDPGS

`N[C@H]1C=C(C(=O)O)CC1(F)F` [SS-1-148, (S)-3-Amino-4,4-difluorocyclopent-1-enecarboxylic acid hydrochloric acid salt] gave an IC50 (hERG) greater than 30 µM and a hOAT covalently modified (hOAT) of roughly 16%.
